Reference: patent US9376418B2, “Substituted pyridine spleen tyrosine kinase (SYK) inhibitors” (Merck Sharp & Dohme Corp., priority 2012, dated 2016)

Molecular target: T1, recombinant human GST-SYK (Homo sapiens, UniProt P43405)
T1 construct: purchased Carna Biosciences 08-176
Assay: Homogeneous Time-Resolved Fluorescence (HTRF) assay for the recombinant human Syk enzyme
Format: biochemical
Conditions: HTRF assay, recombinant human GST-SYK; IC50 given as class symbols; read-out: rhSYK Activity
Summary of the method: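 Enzyme […], pH 7.5 Tris/tween/DTT buffer; 10 min preincubation with compound, RT. Start: 250 nM biotin-peptide, 25 μM ATP, 5 mM Mg; 45′ RT. Stop/detect: 40 mM EDTA, Eu-anti-pTyr, SA-APC; read 30 min later.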

Q: `O=C(O)c1cncc(-c2cccc(Nc3nccc(C(F)(F)F)n3)c2)c1` [Example 2.73, 5-(3-{[4-(trifluoromethyl)pyrimidin-2-yl]amino}phenyl)pyridine-3-carboxylic acid] was tested. Which IC50 did it give?
A: < 100 nM

Q: Which IC50 does the source give for `CNc1ncc(-c2cc(C)cc(Nc3nccc(C(F)(F)F)n3)c2)cc1C(=O)O` [Example 2.74, 2-(methylamino)-5-(3-methyl-5-{[4-(trifluoromethyl)pyrimidin-2-yl]amino}phenyl)pyridine-3-carboxylic acid] here?
A: < 100 nM

Q: `Cc1cc(Nc2nccc(C(F)(F)F)n2)cc(-c2cncc(C(C)(O)C(F)(F)F)c2)c1` (stereo not drawn) [Example 2.75, 1,1,1-trifluoro-2-[5-(3-methyl-5-{[4-(trifluoromethyl)pyrimidin-2-yl]amino}phenyl)pyridin-3-yl]propan-2-ol] was tested. Which IC50 did it give?
A: < 100 nM

Q: With `Cc1cc(Nc2nccc(C(F)(F)F)n2)cc(-c2ccc(C(C)(O)C(F)(F)F)nc2)c1` (stereo not drawn) [Example 2.76, 1,1,1-trifluoro-2-[5-(3-methyl-5-{[4-(trifluoromethyl)pyrimidin-2-yl]amino}phenyl)pyridin-2-yl]propan-2-ol] as the compound, how does the IC50 read?
A: 100 to 1000 nM

Q: `CCOC(=O)CCc1ccc(-c2cccc(Nc3nccc(C(F)(F)F)n3)c2)cn1` [Example 2.77, ethyl 3-[5-(3-{[4-(trifluoromethyl)pyrimidin-2-yl]amino}phenyl)pyridin-2-yl]propanoate] was tested. Which IC50 did it give?
A: 100 to 1000 nM

Q: Which IC50 does the source give for `O=C(O)CCc1cncc(-c2cccc(Nc3nccc(C(F)(F)F)n3)c2)c1` [Example 2.79, 3-[5-(3-{[4-(trifluoromethyl)pyrimidin-2-yl]amino}phenyl)pyridin-3-yl]propanoic acid] here?
A: < 100 nM

Q: With `O=C(O)CCc1ccc(-c2cccc(Nc3nccc(C(F)(F)F)n3)c2)cn1` [Example 2.82, 3-[5-(3-{[4-(trifluoromethyl)pyrimidin-2-yl]amino}phenyl)pyridin-2-yl]propanoic acid] as the compound, how does the IC50 read?
A: < 100 nM

Q: For `COc1ccnc(Nc2cc(C)cc(-c3ccc(CCC(=O)O)nc3)c2)n1` [Example 2.83, 3-(5-{3-[(4-methoxypyrimidin-2-yl)amino]-5-methylphenyl}pyridin-2-yl)propanoic acid], which IC50 is on record?
A: < 100 nM

Q: For `COc1ccnc(Nc2cc(C)cc(-c3cncc(CCC(=O)O)c3)c2)n1` [Example 2.84, 3-(5-{3-[(4-methoxypyrimidin-2-yl)amino]-5-methylphenyl}pyridin-3-yl)propanoic acid], which IC50 is on record?
A: < 100 nM

Q: How did the IC50 turn out when `Cc1cc(Nc2nccc(C(F)(F)F)n2)cc(-c2cncc(CCC(=O)O)c2)c1` [Example 2.86, 3-[5-(3-methyl-5-{[4-(trifluoromethyl)pyrimidin-2-yl]amino}phenyl)pyridin-3-yl]propanoic acid] was run?
A: < 100 nM

Q: With `CCOC(=O)CCc1ccc(-c2cc(C)cc(Nc3nccc(C)n3)c2)cn1` [Example 2.87, ethyl 3-(5-{3-methyl-5-[(4-methylpyrimidin-2-yl)amino]phenyl}pyridin-2-yl)propanoate] as the compound, how does the IC50 read?
A: 100 to 1000 nM

Q: How did the IC50 turn out when `CCOC(=O)CCc1cncc(-c2cc(C)cc(Nc3nccc(C)n3)c2)c1` [Example 2.88, ethyl 3-(5-{3-methyl-5-[(4-methylpyrimidin-2-yl)amino]phenyl}pyridin-3-yl)propanoate] was run?
A: 100 to 1000 nM

Q: How did the IC50 turn out when `Cc1cc(Nc2nccc(C)n2)cc(-c2ccc(CCC(=O)O)nc2)c1` [Example 2.89, 3-(5-{3-methyl-5-[(4-methylpyrimidin-2-yl)amino]phenyl}pyridin-2-yl)propanoic acid] was run?
A: < 100 nM

Q: How did the IC50 turn out when `Cc1cc(Nc2nccc(C)n2)cc(-c2cncc(CCC(=O)O)c2)c1` [Example 2.90, 3-(5-{3-methyl-5-[(4-methylpyrimidin-2-yl)amino]phenyl}pyridin-3-yl)propanoic acid] was run?
A: 100 to 1000 nM

Q: For `CCOC(=O)CCc1cncc(-c2cc(C)cc(Nc3nccc(C4CC4)n3)c2)c1` [Example 2.100], which IC50 is on record?
A: < 100 nM

Q: How did the IC50 turn out when `Cc1cc(Nc2nccc(C3CC3)n2)cc(-c2ccc(CCC(=O)O)nc2)c1` [Example 2.101, 3-(5-{3-[(4-cyclopropylpyrimidin-2-yl)amino]-5-methylphenyl}pyridin-2-yl)propanoic acid] was run?
A: < 100 nM

Q: `Cc1cc(Nc2nccc(C3CC3)n2)cc(-c2cncc(CCC(=O)O)c2)c1` [Example 2.102, 3-(5-{3-[(4-cyclopropylpyrimidin-2-yl)amino]-5-methylphenyl}pyridin-3-yl)propanoic acid] was tested. Which IC50 did it give?
A: < 100 nM

Q: `CCOC(=O)CCc1ccc(-c2cc(C)cc(Nc3nccc(C4CC4)n3)c2)cn1` [Example 2.103, ethyl 3-(5-{3-[(4-cyclopropylpyrimidin-2-yl)amino]-5-methylphenyl}pyridin-2-yl)propanoate] was tested. Which IC50 did it give?
A: < 100 nM

Q: Which IC50 does the source give for `Cc1cc(Nc2nccc(C3CC3)n2)cc(-c2ccc(N[C@H]3CC[C@H](C(=O)O)CC3)nc2)c1` [Example 2.104, trans-4-[(5-{3-[(4-cyclopropylpyrimidin-2-yl)amino]-5-methylphenyl}pyridin-2-yl)amino]cyclohexanecarboxylic acid] here?
A: < 100 nM

Q: With `COc1ccnc(Nc2cc(C)cc(-c3ccc(N[C@H]4CC[C@H](C(=O)O)CC4)nc3)c2)n1` [Example 2.105, trans-4-[(5-{3-[(4-methoxypyrimidin-2-yl)amino]-5-methylphenyl}pyridin-2-yl)amino]cyclohexanecarboxylic acid] as the compound, how does the IC50 read?
A: < 100 nM

Q: How did the IC50 turn out when `Cc1cc(Nc2nccc(C)n2)cc(-c2ccc(N[C@H]3CC[C@H](C(=O)O)CC3)nc2)c1` [Example 2.106, trans-4-[(5-{3-methyl-5-[(4-methylpyrimidin-2-yl)amino]phenyl}pyridin-2-yl)amino]cyclohexanecarboxylic acid] was run?
A: < 100 nM

Q: `Cc1ccnc(Nc2cccc(-c3ccc(N[C@H]4CC[C@H](C(=O)O)CC4)nc3)c2)n1` [Example 2.107, trans-4-[(5-{3-[(4-methylpyrimidin-2-yl)amino]phenyl}pyridin-2-yl)amino]cyclohexanecarboxylic acid] was tested. Which IC50 did it give?
A: < 100 nM

Q: Which IC50 does the source give for `Cc1cc(Nc2nccc(C(C)C)n2)cc(-c2ccc(N[C@H]3CC[C@H](C(=O)O)CC3)nc2)c1` [Example 2.108, trans-4-{[5-(3-methyl-5-{[4-(1-methylethyl)pyrimidin-2-yl]amino}phenyl)pyridin-2-yl]amino}cyclohexanecarboxylic acid] here?
A: < 100 nM

Q: How did the IC50 turn out when `Cc1cc(Nc2nccc(C(F)(F)F)n2)cc(-c2ccc(NC(=O)CC#N)nc2)c1` [Example 2.109, 2-cyano-N-[5-(3-methyl-5-{[4-(trifluoromethyl)pyrimidin-2-yl]amino}phenyl)pyridin-2-yl]acetamide] was run?
A: < 100 nM

Q: Which IC50 does the source give for `Cc1cc(Nc2nccc(C(F)(F)F)n2)cc(-c2ccc(OC3CCC(C(=O)O)CC3)nc2)c1` (stereo not drawn) [Example 2.110, 4-{[5-(3-methyl-5-{[4-(trifluoromethyl)pyrimidin-2-yl]amino}phenyl)pyridin-2-yl]oxy}cyclohexanecarboxylic acid] here?
A: < 100 nM

Q: `Cc1cc(Nc2nccc(C(F)(F)F)n2)cc(-c2ccc(OC3CCC(C(=O)O)CC3)nc2)c1` (stereo not drawn) [Example 2.111, 4-{[5-(3-methyl-5-{[4-(trifluoromethyl)pyrimidin-2-yl]amino}phenyl)pyridin-2-yl]oxy}cyclohexanecarboxylic acid] was tested. Which IC50 did it give?
A: < 100 nM

Q: For `Cc1cc(Nc2nccc(C(F)(F)F)n2)cc(-c2ccc(Oc3ccc(C(=O)O)cc3)nc2)c1` [Example 2.112, 4-{[5-(3-methyl-5-{[4-(trifluoromethyl)pyrimidin-2-yl]amino}phenyl)pyridin-2-yl]oxy}benzoic acid], which IC50 is on record?
A: < 100 nM

Q: For `CC(=O)c1ccc(-c2cc(C)cc(Nc3nccc(C(F)(F)F)n3)c2)cn1` [Example 2.113, 1-[5-(3-methyl-5-{[4-(trifluoromethyl)pyrimidin-2-yl]amino}phenyl)pyridin-2-yl]ethanone], which IC50 is on record?
A: 100 to 1000 nM

Q: How did the IC50 turn out when `Cc1cc(Nc2nccc(C(F)(F)F)n2)cc(-c2ccc(C(C)(O)C(F)(F)F)nc2)c1` (stereo not drawn) [Example 2.115, 1,1,1-trifluoro-2-[5-(3-methyl-5-{[4-(trifluoromethyl)pyrimidin-2-yl]amino}phenyl)pyridin-2-yl]propan-2-ol] was run?
A: 100 to 1000 nM

Q: `Cc1cc(Nc2nccc(C(F)(F)F)n2)cc(-c2ccc(C(F)(F)C(=O)O)nc2)c1` [Example 2.116, difluoro[5-(3-methyl-5-{[4-(trifluoromethyl)pyrimidin-2-yl]amino}phenyl)pyridin-2-yl]acetic acid] was tested. Which IC50 did it give?
A: < 100 nM

Q: Which IC50 does the source give for `Cc1cc(Nc2nccc(C(F)(F)F)n2)cc(-c2ccc(C(F)(F)CO)nc2)c1` [Example 2.117, 2,2-difluoro-2-[5-(3-methyl-5-{[4-(trifluoromethyl)pyrimidin-2-yl]amino}phenyl)pyridin-2-yl]ethanol] here?
A: < 100 nM

Q: `COc1nc(Nc2cc(C)cc(-c3ccc(N[C@H]4CC[C@H](C(=O)O)CC4)nc3)c2)ncc1Cl` [Example 2.118, trans-4-[(5-{3-[(5-chloro-4-methoxypyrimidin-2-yl)amino]-5-methylphenyl}pyridin-2-yl)amino]cyclohexanecarboxylic acid] was tested. Which IC50 did it give?
A: 100 to 1000 nM

Q: Which IC50 does the source give for `Cc1cc(Nc2ncc(Cl)c(C)n2)cc(-c2ccc(N[C@H]3CC[C@H](C(=O)O)CC3)nc2)c1` [Example 2.119, trans-4-[(5-{3-[(5-chloro-4-methylpyrimidin-2-yl)amino]-5-methylphenyl}pyridin-2-yl)amino]cyclohexanecarboxylic acid] here?
A: < 100 nM

Q: With `Cc1cc(Nc2ncc(F)c(C)n2)cc(-c2ccc(N[C@H]3CC[C@H](C(=O)O)CC3)nc2)c1` [Example 2.120, trans-4-[(5-{3-[(5-fluoro-4-methylpyrimidin-2-yl)amino]-5-methylphenyl}pyridin-2-yl)amino]cyclohexanecarboxylic acid] as the compound, how does the IC50 read?
A: < 100 nM

Q: `COc1nc(Nc2cc(C)cc(-c3ccc(N[C@H]4CC[C@H](C(=O)O)CC4)nc3)c2)ncc1F` [Example 2.121, trans-4-[(5-{3-[(5-fluoro-4-methoxypyrimidin-2-yl)amino]-5-methylphenyl}pyridin-2-yl)amino]cyclohexanecarboxylic acid] was tested. Which IC50 did it give?
A: < 100 nM

Q: For `COc1cc(-c2cccc(Nc3nccc(C(F)(F)F)n3)c2)ccn1` [Example 2.122, N-[3-(2-methoxypyridin-4-yl)phenyl]-4-(trifluoromethyl)pyrimidin-2-amine], which IC50 is on record?
A: 100 to 1000 nM
